Several values for one entry are separate records, joined by “and”; a condition that tells them apart may be missing. Equal entries are not always repeated.
How the values were obtained:
[1] = cited from earlier work
[2] = test system: adult patients with advanced solid tumours; experiment: Phase I open-label dose-escalation trial, maximum tolerated dose and diarrhoea; type: in vivo, human
Description: A group of eleven genes were identified as having statistically significant differences in expression levels when comparing the test samples to their respective baseline samples. […] These genes were identified following a […] dose-finding clinical trial, which was undertaken in which epothilone B was administered weekly to adult patients with advanced solid tumours. A clinical pharmacogenetics (CPG) analysis identified biomarker candidates for the incidence of epothilone B-induced diarrhoea. The analysis also identified genomic-based factors (such as mRNA expression profiles) that are associated with the incidence of epothilone B-induced diarrhoea.
The maximum tolerated dose (MTD) for a compound is determined using methods and materials known in the medical and pharmacological arts, for example through dose-escalation experiments. One or more patients is first treated with a low dose of the compound, typically 10% of the dose anticipated to be therapeutic based on results of in vitro cell culture experiments. The patients are observed for a period of time to determine the occurrence of toxicity. Toxicity is typically evidenced as the observation of one or more of the following symptoms: vomiting, diarrhoea, peripheral neuropathy, ataxia, neutropaenia, or elevation of liver enzymes. If no toxicity is observed, the dose is increased 2-fold, and the patients are again observed for evidence of toxicity. This cycle is repeated until a dose producing evidence of toxicity is reached. The dose immediately preceding the onset of unacceptable toxicity is taken as the […]. A determination of the MTD for epothilone B is provided above.
Clinical trial design. This clinical trial was an open-label, dose-escalation trial using a standard Phase I protocol design (3+3 design) of enrolling three-six patients per cohort to establish the maximum tolerated dose. Peripheral whole blood was collected from patients that consented to clinical pharmacogenetics analysis. Two clinical pharmacogenetics blood samples were scheduled: baseline and on Day 2 of Week 1 at hour 24. The core treatment period consisted of two nine-week cycles of weekly intravenous administrations of epothilone B as tolerated by haematologic and other toxicities. The doses of epothilone B used in this trial were 0.3, 0.5, 0.75, 1.1, 1.85, 2.5, 3.0 and 3.6 mg/m^2.
Clinical pharmacogenetics subjects used for the analysis. Epothilone B was administered to subjects as a single intravenous infusion over five minutes in a maximum volume of 20 ml either every week for up to six weeks followed by a three-week wash-out period, or every week for three weeks followed by one week without treatment. The 2.5 mg/m^2 treatment was considered to be the maximum tolerated dose (MTD). Therefore, twenty clinical pharmacogenetics participants who were in the 2.5, 3.0 and 3.6 mg/m^2 treatment groups and whose arrays met the quality standards were used. The rationale behind this decision was based on the assumption that those genes whose expression was affected by the 2.5 mg/m^2 treatment would be more pronounced in 3.0 and 3.6 mg/m^2 treatment groups.
(§1) Because there were only three subjects who experienced grade 3 diarrhoea, all fifteen subjects who experienced any grade of diarrhoea were grouped together to strengthen the statistical power of this analysis.

[3] = test system: white blood cells; experiment: mRNA expression profiling (Affymetrix U95A) of white blood cells, baseline vs. treated; type: in vivo, human
Description: (§2) Samples. Forty-three out of the ninety-one subjects who enrolled in the clinical trial consented to clinical pharmacogenetics analysis. For each subject, two clinical pharmacogenetics blood samples were scheduled: baseline and on Day 2 of Week 1 at hour 24. White blood cell (WBC) pellets were ficoll-hypaque separated from the whole blood by the investigator, frozen at −80° C. mRNA was extracted and profiled on the Affymetrix U95A GeneChip® platform.
(§3) mRNA expression profiling analysis. Any array with greater than 20% of genes called present by the Affymetrix MAS5 algorithm was a candidate for the analyses described herein. Affymetrix, “New statistical algorithms for monitoring gene expression on GeneChip® probe arrays.” Affymetrix Technical Notes. (2001). […] Forty-two out of the possible eighty-six arrays met the quality standards needed for analysis.
(§4) Statistical analysis. Fisher's Exact tests were performed to compare the demographics of the clinical pharmacogenetics participants to the overall trial population. An analysis of variance (ANOVA) was used to determine whether mRNA gene expression patterns correlated to either treatment status (baseline vs. treated), to experiencing diarrhoea (no diarrhoea vs. diarrhoea) or to whether specific blood cell type levels correlated to experiencing diarrhoea. All statistical analyses were performed using the SigmaStat 2.03 and SAS 8.02 programs.
Analysis of baseline vs. treated mRNA profiles by treatment group. To determine if gene expression in white blood cells was altered by epothilone B at 24 hours after treatment, a comparison between baseline and treated expression profiles was performed.

[4] = test system: white blood cells; experiment: mRNA expression profiles of white blood cells after treatment, no diarrhoea vs. diarrhoea subjects; type: in vivo, human; conditions: treated; for Signal Value 297_g_at (Tubulin, beta) / Signal Value 477_at (IRF5) / Signal Value 1274_s_at (CDC34) / Signal Value 33336_at (SLC4A1) / Signal Value 33759_at (BPGM) / Signal Value 37285_at (ALAS2) / Signal Value 37405_at (SELENBP1) / Signal Value 39436_at (BNIP3L): average of arrays
Description: as §2, §3, §4, §1
A comparison of the mRNA expression profiles of white blood cells identified eight genes with statistically significant differences between the two groups of subjects 24 hours after epothilone B administration. See, TABLE 3.
Compare, TABLE 8 and TABLE 13.

[5] = Blood cell, haematocrit and haemoglobin levels after epothilone B treatment by diarrhoea status; type: in vivo, human; conditions: for Basophils / Eosinophils / Haematocrit / Haemoglobin / Lymphocytes / Monocytes / Neutrophils / Platelets / White Blood Cells: CPG subjects after a single dose, mean ± SEM
Description: as §4
Next, the levels of each blood cell type were compared between the two groups of subjects. Because these values were not determined at the blood draw timepoint, values for the second blood draw timepoint after baseline in cycle 1, corresponding to the first blood draw after the first epothilone B treatment (usually 24 hours after the […]) were used for this comparison. […] See, TABLE 4 and FIGS. 1-2.
Because females generally have lower levels of haematocrit and haemoglobin compared to males, a similar analysis was done by sex. As shown in TABLE 5 and FIGS. 1-2, similar trends in haematocrit and haemoglobin levels were identified for each sex. To determine if these associations exist for the entire trial subject population, the haematocrit and haemoglobin levels for all subjects at the second blood draw after baseline in cycle 1 were investigated.

[6] = test system: drug-sensitive and multidrug-resistant cells overexpressing P-glycoprotein; conditions: cited from earlier work
[7] = CPG subjects, grade 1 diarrhoea
[8] = of twenty CPG subjects, 2.5, 3.0 and 3.6 mg/m^2, irregardless of dose
[9] = 3.6 mg/m^2, 24 hours after treatment
[10] = 24 hours, any grade of diarrhoea
[11] = CPG Females after a single dose, Diarrhoea (n = 10)
[12] = CPG Females after a single dose, No Diarrhoea (n = 4)
[13] = CPG Males after a single dose, Diarrhoea (n = 5)
[14] = CPG Males after a single dose, No Diarrhoea (n = 1)
[15] = all Females after treatment, Diarrhoea (n = 42)
[16] = all Females after treatment, No Diarrhoea (n = 22)
[17] = all Males after treatment, Diarrhoea (n = 16)
[18] = all Males after treatment, No Diarrhoea (n = 11)
[19] = all subjects after treatment, Diarrhoea any grade (n = 58)
[20] = all subjects after treatment, No Diarrhoea (n = 33)

## CCc1c2c(nc3ccc(OC(=O)N4CCC(N5CCCCC5)CC4)cc13)-c1cc3c(c(=O)n1C2)COC(=O)[C@]3(O)CC [CPT-11]
[1]; anticancer drugs targeted to inhibit the cell cycle, literature
  drug-induced diarrhoea: Diarrhoea has been reported

## C/C(=C\c1csc(C)n1)[C@@H]1C[C@@H]2O[C@]2(C)CCC[C@H](C)[C@H](O)[C@@H](C)C(=O)C(C)(C)[C@@H](O)CC(=O)O1 [epothilone B, Epothilone B]
[2]; CPG subjects
  mean time of experiencing the first episode of diarrhoea after receiving dose: 37 days
[2]; [7]
  maximum time to first episode of diarrhoea: 304 days
  minimum time to first episode of diarrhoea: 6 days
[2]; clinical pharmacogenetics (CPG) subjects
  mean onset of diarrhoea after the scheduled blood draw: 371 ± 18 days
[2]; of twenty CPG subjects, 2.5, 3.0 and 3.6 mg/m^2
  subjects who experienced grade 3 diarrhoea: three
[2]; [8]
  subjects who did not experience diarrhoea: five
  subjects who experienced any grade of diarrhoea: fifteen
[2]; weekly intravenous infusion over five minutes
  maximum tolerated dose (MTD): 2.5 mg/m^2
[1]; Rothermel et al. 2003
  dose-limiting toxicity (diarrhoea): dose-limiting toxicity
  myelosuppression: no myelosuppression
[3]; [9]
  Fold Change [treated/baseline] DAPK1 (40049_at) mRNA: 2.1
  Fold Change [treated/baseline] DR1 (32621_at) mRNA: 1.9
  Fold Change [treated/baseline] JAK1 (1457_at) mRNA: 1.7
  Fold Change [treated/baseline] K-ALPHA-1 (32272_at) mRNA: 1.7
  Fold Change [treated/baseline] MAP4K2 (187_at) mRNA: −1.7
  Fold Change [treated/baseline] RAP1A (1848_at) mRNA: 1.9
  Fold Change [treated/baseline] SURF2 (38210_at) mRNA: 2.4
  Fold Change [treated/baseline] TCFL4 (32578_at) mRNA: −1.6
  Fold Change [treated/baseline] TM9SF1 (38835_at) mRNA: 2.2
  Fold Change [treated/baseline] ZFP36 (40448_at) mRNA: 1.6
  Fold Change [treated/baseline] nuclear transcription factor Y, alpha (33297_at) mRNA: −1.6
[3]; 3.6 mg/m^2 treatment, 24 hours
  number of genes with statistically significant changes in expression, treated vs. baseline: eleven
[3]; 2.5 and 3.0 mg/m^2 treatments, 24 hours
  genes with statistically significant expression differences, treated vs. baseline: No genes with statistically significant differences were identified
[3]; all treated samples combined, 24 hours after treatment
  genes with statistically significant expression differences, treated vs. baseline: no genes with statistically significant differences were identified
[4]; [10]
  Fold Change [diarrhoea/no diarrhoea] ALAS2 (37285_at) mRNA: −9.6
  Fold Change [diarrhoea/no diarrhoea] BNIP3L (39436_at) mRNA: −2.8
  Fold Change [diarrhoea/no diarrhoea] BPGM (33759_at) mRNA: −4.9
  Fold Change [diarrhoea/no diarrhoea] CDC34 (1274_s_at) mRNA: −2.2
  Fold Change [diarrhoea/no diarrhoea] IRF5 (477_at) mRNA: 2.9
  Fold Change [diarrhoea/no diarrhoea] SELENBP1 (37405_at) mRNA: −11.3
  Fold Change [diarrhoea/no diarrhoea] SLC4A1 (33336_at) mRNA: −15.3
  Fold Change [diarrhoea/no diarrhoea] Tubulin, beta (297_g_at) mRNA: −3.9
[4]; Diarrhoea (any grade) subjects
  Signal Value 297_g_at (Tubulin, beta): 59
  Signal Value 477_at (IRF5): 278
  Signal Value 1274_s_at (CDC34): 128
  Signal Value 33336_at (SLC4A1): 93
  Signal Value 33759_at (BPGM): 70
  Signal Value 37285_at (ALAS2): 448
  Signal Value 37405_at (SELENBP1): 106
  Signal Value 39436_at (BNIP3L): 1476
[4]; No Diarrhoea subjects
  Signal Value 297_g_at (Tubulin, beta): 232
  Signal Value 477_at (IRF5): 97
  Signal Value 1274_s_at (CDC34): 278
  Signal Value 33336_at (SLC4A1): 1421 and 1422
  Signal Value 33759_at (BPGM): 344
  Signal Value 37285_at (ALAS2): 4292
  Signal Value 37405_at (SELENBP1): 1200
  Signal Value 39436_at (BNIP3L): 4200
[4]; grade 3 diarrhoea
  Fold Change [diarrhoea/no diarrhoea] 297_g_at (Tubulin, beta): −3.0
  Fold Change [diarrhoea/no diarrhoea] 477_at (IRF5): ^f2.7
  Fold Change [diarrhoea/no diarrhoea] 1274_s_at (CDC34): −2.3
  Fold Change [diarrhoea/no diarrhoea] 33336_at (SLC4A1): −15.9
  Fold Change [diarrhoea/no diarrhoea] 33759_at (BPGM): ^f−6.7
  Fold Change [diarrhoea/no diarrhoea] 37285_at (ALAS2): −10.0
  Fold Change [diarrhoea/no diarrhoea] 37405_at (SELENBP1): ^f−10.3
  Fold Change [diarrhoea/no diarrhoea] 39436_at (BNIP3L): −2.8
[4]; grade 3 diarrhoea subjects
  Signal Value 297_g_at (Tubulin, beta): 77
  Signal Value 477_at (IRF5): 264
  Signal Value 1274_s_at (CDC34): 123
  Signal Value 33336_at (SLC4A1): 90
  Signal Value 33759_at (BPGM): 51
  Signal Value 37285_at (ALAS2): 428
  Signal Value 37405_at (SELENBP1): 113
  Signal Value 39436_at (BNIP3L): 1489
[5]; [11]
  HCT: 35.63 ± 0.01%
  HGB: 12.01 ± 0.35 g/dL
[5]; [12]
  HCT: 30.63 ± 0.20%
  HGB: 10.40 ± 0.20 g/dL
[5]; [13]
  HCT: 38.30 ± 1.77%
  HGB: 13.18 ± 0.62 g/dL
[5]; [14]
  HCT: 26.30%
  HGB: 8.70 g/dL
[5]; Diarrhoea (n = 15)
  Basophils: 0.57 ± 0.12%
  Eosinophils: 2.74 ± 0.45%
  Haematocrit: 36.11 ± 0.91%
  Haemoglobin: 12.40 ± 0.33 g/dL
  Lymphocytes: 19.92 ± 1.92%
  Monocytes: 7.88 ± 0.71%
  Neutrophils: 68.81 ± 2.38%
  Platelets: 259.20 ± 23.25 THOU/MM^3
  White Blood Cells: 5.60 ± 0.44 THOU/MM^3
[5]; No Diarrhoea (n = 5)
  Basophils: 0.64 ± 0.22%
  Eosinophils: 3.42 ± 0.73%
  Haematocrit: 29.76 ± 0.87%
  Haemoglobin: 10.06 ± 0.84 g/dL
  Lymphocytes: 14.50 ± 0.74%
  Monocytes: 8.10 ± 0.74%
  Neutrophils: 73.60 ± 2.05%
  Platelets: 334.40 ± 54.80 THOU/MM^3
  White Blood Cells: 5.92 ± 0.87 THOU/MM^3
[5]; [15]
  HCT: 34.34 ± 0.69%
  HGB: 11.56 ± 0.25 g/dL
[5]; [16]
  HCT: 33.17 ± 0.94%
  HGB: 11.13 ± 0.30 g/dL
[5]; [17]
  HCT: 32.84 ± 1.50%
  HGB: 12.46 ± 0.44 g/dL
[5]; [18]
  HCT: 37.48 ± 1.39%
  HGB: 11.06 ± 0.46 g/dL
[5]; [19]
  HCT: 35.21 ± 0.67%
  HGB: 11.81 ± 0.22 g/dL
[5]; [20]
  HCT: 33.06 ± 0.77%
  HGB: 11.11 ± 0.25 g/dL
[6]
  cytotoxicity, drug-sensitive vs. multidrug-resistant cells: equally cytotoxic

Source: US20070289889A1, “Biomarkers For The Prediction Of Drug-In Duced Diarrhea” (NOVARTIS AG, priority 2003, published 2007)
